According to the supplement of paper PMC10307832:

Tests used:
Test in all cases: relative viability (nuclei count vs DMSO), 5 days (fraction); higher = more cells survive
EMC-BAC-2 = system: EMC-BAC-2
In short: (§1)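 Lung cancer cell lines were seeded in 1536-well plates and dosed by pin tool the next day, with either a single drug or a fixed anchor-drug dose combined with five library-drug doses (not always all listed) spaced in √10 steps. Five days later, one step fixed the cells and stained their nuclei (final 0.05% Triton X-100, 1% formaldehyde, 1 ug/ml Hoechst), and nuclei were counted on 4× images. Relative viability is the nuclei count in treated wells divided by the count in vehicle wells, and each value is the median of duplicate plates.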

NCI-H727 = system: NCI-H727
In short: as §1

NCI-H1437 = system: NCI-H1437
In short: as §1

NCI-H2009 = system: NCI-H2009
In short: as §1

NCI-H2023 = system: NCI-H2023
In short: as §1

NCI-H2170 = system: NCI-H2170
In short: as §1

NCI-H647 = system: NCI-H647
In short: as §1

NCI-H460 = system: NCI-H460
In short: as §1

NCI-H2405 = system: NCI-H2405
In short: as §1

EPLC-272H = system: EPLC-272H
In short: as §1

NCI-H520 = system: NCI-H520
In short: as §1

LOU-NH91 = system: LOU-NH91
In short: as §1

NCI-H2347 = system: NCI-H2347
In short: as §1

HOP-62 = system: HOP-62
In short: as §1

NCI-H2126 = system: NCI-H2126
In short: as §1

HCC-44 = system: HCC-44
In short: as §1

NCI-H23 = system: NCI-H23
In short: as §1

ChaGo-K-1 = system: ChaGo-K-1
In short: as §1

NCI-H441 = system: NCI-H441
In short: as §1

NCI-H1793 = system: NCI-H1793
In short: as §1

LCLC-103H = system: LCLC-103H
In short: as §1

NCI-H650 = system: NCI-H650
In short: as §1

SW 1573 = system: SW 1573
In short: as §1

## O=C(O)CCCCC(CCSCc1ccccc1)SCc1ccccc1 (stereo not given) [CPI-613] + O=C(c1cc(Cc2n[nH]c(=O)c3ccccc23)ccc1F)N1CCN(C(=O)C2CC2)CC1 [Olaparib] (partner 8 µM)
EMC-BAC-2; first compound 5 µM
  relative viability: 0.508
EMC-BAC-2; first compound 15.81 µM
  relative viability: 0.432
EMC-BAC-2; first compound 50 µM
  relative viability: 0.484
EMC-BAC-2; first compound 158.11 µM
  relative viability: 0.199
EMC-BAC-2; first compound 500 µM
  relative viability: 0.229
NCI-H727; first compound 5 µM
  relative viability: 0.783
NCI-H727; first compound 15.81 µM
  relative viability: 0.672
NCI-H727; first compound 50 µM
  relative viability: 0.631
NCI-H727; first compound 158.11 µM
  relative viability: 0.748
NCI-H727; first compound 500 µM
  relative viability: 0.678
NCI-H1437; first compound 5 µM
  relative viability: 0.599
NCI-H1437; first compound 15.81 µM
  relative viability: 0.595
NCI-H1437; first compound 50 µM
  relative viability: 0.508
NCI-H1437; first compound 158.11 µM
  relative viability: 0.112
NCI-H1437; first compound 500 µM
  relative viability: 0.0622
NCI-H2009; first compound 5 µM
  relative viability: 0.703
NCI-H2009; first compound 15.81 µM
  relative viability: 0.707
NCI-H2009; first compound 50 µM
  relative viability: 0.67
NCI-H2009; first compound 158.11 µM
  relative viability: 0.109
NCI-H2009; first compound 500 µM
  relative viability: 0.0171
NCI-H2023; first compound 5 µM
  relative viability: 0.47
NCI-H2023; first compound 15.81 µM
  relative viability: 0.425
NCI-H2023; first compound 50 µM
  relative viability: 0.41
NCI-H2023; first compound 158.11 µM
  relative viability: 0.134
NCI-H2023; first compound 500 µM
  relative viability: 0.009
NCI-H2170; first compound 5 µM
  relative viability: 0.591
NCI-H2170; first compound 15.81 µM
  relative viability: 0.554
NCI-H2170; first compound 50 µM
  relative viability: 0.534
NCI-H2170; first compound 158.11 µM
  relative viability: 0.403
NCI-H2170; first compound 500 µM
  relative viability: 0.18
NCI-H647; first compound 5 µM
  relative viability: 0.426
NCI-H647; first compound 15.81 µM
  relative viability: 0.528
NCI-H647; first compound 50 µM
  relative viability: 0.331
NCI-H647; first compound 158.11 µM
  relative viability: 0.0348
NCI-H647; first compound 500 µM
  relative viability: 0.0133
NCI-H460; first compound 5 µM
  relative viability: 0.37
NCI-H460; first compound 15.81 µM
  relative viability: 0.321
NCI-H460; first compound 50 µM
  relative viability: 0.373
NCI-H460; first compound 158.11 µM
  relative viability: 0.274
NCI-H460; first compound 500 µM
  relative viability: 0.361
NCI-H2405; first compound 5 µM
  relative viability: 0.89
NCI-H2405; first compound 15.81 µM
  relative viability: 0.787
NCI-H2405; first compound 50 µM
  relative viability: 0.781
NCI-H2405; first compound 158.11 µM
  relative viability: 0.25
NCI-H2405; first compound 500 µM
  relative viability: 0.0972
EPLC-272H; first compound 5 µM
  relative viability: 0.812
EPLC-272H; first compound 15.81 µM
  relative viability: 0.683
EPLC-272H; first compound 50 µM
  relative viability: 0.653
EPLC-272H; first compound 158.11 µM
  relative viability: 0.198
EPLC-272H; first compound 500 µM
  relative viability: 0.083
NCI-H520; first compound 5 µM
  relative viability: 0.323
NCI-H520; first compound 15.81 µM
  relative viability: 0.371
NCI-H520; first compound 50 µM
  relative viability: 0.329
NCI-H520; first compound 158.11 µM
  relative viability: 0.136
NCI-H520; first compound 500 µM
  relative viability: 0.113
LOU-NH91; first compound 5 µM
  relative viability: 0.883
LOU-NH91; first compound 15.81 µM
  relative viability: 0.86
LOU-NH91; first compound 50 µM
  relative viability: 0.867
LOU-NH91; first compound 158.11 µM
  relative viability: 0.442
LOU-NH91; first compound 500 µM
  relative viability: 0.533
NCI-H2347; first compound 5 µM
  relative viability: 0.535
NCI-H2347; first compound 15.81 µM
  relative viability: 0.505
NCI-H2347; first compound 50 µM
  relative viability: 0.562
NCI-H2347; first compound 158.11 µM
  relative viability: 0.495
NCI-H2347; first compound 500 µM
  relative viability: 0.349
HOP-62; first compound 5 µM
  relative viability: 0.298
HOP-62; first compound 15.81 µM
  relative viability: 0.471
HOP-62; first compound 50 µM
  relative viability: 0.368
HOP-62; first compound 158.11 µM
  relative viability: 0.459
HOP-62; first compound 500 µM
  relative viability: 0.459
NCI-H2126; first compound 5 µM
  relative viability: 0.904
NCI-H2126; first compound 15.81 µM
  relative viability: 1.07
NCI-H2126; first compound 50 µM
  relative viability: 0.845
NCI-H2126; first compound 158.11 µM
  relative viability: 0.757
NCI-H2126; first compound 500 µM
  relative viability: 0.128
HCC-44; first compound 5 µM
  relative viability: 0.97
HCC-44; first compound 15.81 µM
  relative viability: 0.95
HCC-44; first compound 50 µM
  relative viability: 0.925
HCC-44; first compound 158.11 µM
  relative viability: 0.629
HCC-44; first compound 500 µM
  relative viability: 0.469
NCI-H23; first compound 5 µM
  relative viability: 0.33
NCI-H23; first compound 15.81 µM
  relative viability: 0.28
NCI-H23; first compound 50 µM
  relative viability: 0.282
NCI-H23; first compound 158.11 µM
  relative viability: 0.0911
NCI-H23; first compound 500 µM
  relative viability: 0.0098
ChaGo-K-1; first compound 5 µM
  relative viability: 0.4
ChaGo-K-1; first compound 15.81 µM
  relative viability: 0.411
ChaGo-K-1; first compound 50 µM
  relative viability: 0.412
ChaGo-K-1; first compound 158.11 µM
  relative viability: 0.319
ChaGo-K-1; first compound 500 µM
  relative viability: 0.251
NCI-H441; first compound 5 µM
  relative viability: 0.456
NCI-H441; first compound 15.81 µM
  relative viability: 0.483
NCI-H441; first compound 50 µM
  relative viability: 0.596
NCI-H441; first compound 158.11 µM
  relative viability: 0.109
NCI-H441; first compound 500 µM
  relative viability: 0.0239
NCI-H1793; first compound 5 µM
  relative viability: 0.75
NCI-H1793; first compound 15.81 µM
  relative viability: 0.789
NCI-H1793; first compound 50 µM
  relative viability: 0.856
NCI-H1793; first compound 158.11 µM
  relative viability: 0.146
NCI-H1793; first compound 500 µM
  relative viability: 0.0648
LCLC-103H; first compound 5 µM
  relative viability: 0.755
LCLC-103H; first compound 15.81 µM
  relative viability: 0.669
LCLC-103H; first compound 50 µM
  relative viability: 0.733
LCLC-103H; first compound 158.11 µM
  relative viability: 0.55
LCLC-103H; first compound 500 µM
  relative viability: 0.717
NCI-H650; first compound 5 µM
  relative viability: 0.404
NCI-H650; first compound 15.81 µM
  relative viability: 0.393
NCI-H650; first compound 50 µM
  relative viability: 0.366
NCI-H650; first compound 158.11 µM
  relative viability: 0.339
NCI-H650; first compound 500 µM
  relative viability: 0.359
SW 1573; first compound 5 µM
  relative viability: 0.442
SW 1573; first compound 15.81 µM
  relative viability: 0.395
SW 1573; first compound 50 µM
  relative viability: 0.406
SW 1573; first compound 158.11 µM
  relative viability: 0.135
SW 1573; first compound 500 µM
  relative viability: 0.071
